We go through 14 compounds from patent US7452691B2, “Device and method for detecting antibiotic inactivating enzymes” (priority 2005, dated 2008).

In brackets after ≈: the same amount, converted by molar mass. Like-named read-outs stand apart in the source and are kept apart here. A value given as a limit tells only on which side of the number the result lay.

In one experiment the target is L-1 (Stenotrophomonas maltophilia, UniProt P52700). Description: Indirect reagent disk test, antibiotic inactivation. The format is cell-based. The settings on record: enzyme L-1; indirect method. The source says: (§1) • 1. […] Performing and Interpreting the Test • 1.
The next experiment concerns the target OXA-5 (Pseudomonas aeruginosa, UniProt Q00982). The description is as above. The format is cell-based. Conditions: enzyme OXA-5; indirect method.
The next experiment addresses OXA-3 (Pseudomonas aeruginosa, UniProt Q51429). The description is as above. The settings on record: enzyme OXA-3; indirect method. The format is cell-based.
Another experiment relates to OXA-4. Described as above. It counts as cell-based. The settings on record: enzyme OXA-4; indirect method.
The next experiment addresses OXA-2 (Escherichia coli, UniProt P0A1V9). The description is as above. Conditions: enzyme OXA-2; indirect method. It counts as cell-based.
A further experiment deals with AmpC. Conditions: enzyme AmpC; indirect method.
The subject of another experiment is LAT-1. In words: Indirect reagent disk test, antibiotic inactivation. It counts as cell-based. Conditions: enzyme LAT-1; indirect method.
Text: as §1

For another experiment, the target named is PSE-1 (Pseudomonas aeruginosa, UniProt Q03170). Described as above. It counts as cell-based. The settings on record: enzyme PSE-1; indirect method.
Text: as §1

A further experiment has as its system OXA-6. Described as above. It counts as cell-based. Conditions: enzyme OXA-6; indirect method.
A further experiment relates to E. coli V1104. In words: Spectrophotometric hydrolysis assay of β-lactamase released by permeabilizing agent, nitrocefin as substrate. The format is cell-based. The procedure:
(§2) H., et al., A.A.C. 1:283-288 (1972). […] The nitrocefin was prewarmed to 37° C.
The experiment in Example 1 was repeated using E. coli V1104 to evaluate a variety of permeabilizing agents. Nitrocefan was the hydrolysis substrate.

For the next experiment, the system named is ACT-1. In words: Indirect reagent disk test, antibiotic inactivation. It counts as cell-based. The settings on record: enzyme ACT-1; indirect method.
The next experiment has as its system FOX-1. The description is as above. The format is cell-based. Conditions: enzyme FOX-1; indirect method.
In a further experiment the target is SHV-1 (Klebsiella pneumoniae, UniProt P0AD64). The experiment is described as above. It counts as cell-based. Conditions: enzyme SHV-1; indirect method.
The next experiment has as its system TEM-46. It counts as cell-based. The settings on record: enzyme TEM-46; indirect method.
Another experiment concerns Class A Carbapenemases. In words: Indirect TE disk test for detection of Class A Carbapenemases. The format is cell-based. The settings on record: for CACs detected by indirect TE disk test: 21 CAC-producing strains, E. coli ATCC 25922 lawn; for False positive results in indirect TE disk test: strains producing non-CAC enzymes (metallo/OXA carbapenemases, AmpC, ESBLs). The procedure:
Methods: 21 strains that produced Class A Carbapenemases (“CACs”) comprising 12 Klebsiella pneumoniae, 5 Enterobacter cloacae, 2 Escherichia coli, and 2 Serratia marcescens; 10 strains of Acinetobacter baumannii, Pseudomonas aeruginosa, and S. marcescens that produced either a metallo-beta-lactamase or an OXA carbapenemases, and 11 strains of Enterobacteriaceae that produced either AmpC β-lactamases or ESBLs were investigated. The test was performed essentially as described in Example 5, with any changes noted below. The indirect test involved inoculation of the surface of a Mueller-Hinton (MH) agar plate with a lawn of E. coli ATCC 25922, not the test organism. Immediately prior to incubation, a premoistened TE disk was inoculated with several colonies of the test organism and placed face down on the MH agar adjacent to a disk containing one of the carbapenems, imipenem (IPM), meropenem (MER), or ertapenem (ERT). After overnight incubation, an indentation of the zone inhibition was interpreted as positive.

For a further experiment, the system named is Klebsiella spp. isolates. In words: Antimicrobial susceptibility by NCCLS microdilution (MIC). It counts as cell-based. The procedure: Thirty recent isolates of Klebsiella spp. were collected from patients in United States hospitals.
Antimicrobial susceptibility was determined by NCCLS microdilution methodology using an investigational Microscan dehydrated panel.
In general terms: Broth dilution looks for growth in wells or tubes with falling amounts of substance.

Another experiment addresses SHV-2 (Escherichia coli, UniProt P0A9Z7). Description: Indirect reagent disk test, antibiotic inactivation. It counts as cell-based. Conditions: enzyme SHV-2; indirect method.
The target of another experiment is SHV-4 (Klebsiella pneumoniae, UniProt P37323). The description is as above. The format is cell-based. The settings on record: enzyme SHV-4; indirect method.
The subject of experiment [1] is E. coli MISC 208 (which produces the extended spectrum β-lactamase SHV-2). Conditions: 0° C.
Protocol: In this Example, E. coli MISC 208 (which produces the extended spectrum β-lactamase SHV-2) was used as a test organism and nitrocefin was the substrate in spectrophotometric hydrolysis assays. The E. coli strain was harvested directly into 100 microliters of Mueller Hinton Broth and mixed with 100 microliters of the permeabilizing agent.
In the hydrolysis assay, units of activity are calculated as:
Briefly, a 100 μM solution of nitrocefin was used as a substrate. The nitrocefin was prewarmed to 37° C. The hydrolysis assay was performed at 37° C. at a wavelength of 389.5 with an extinction coefficient of −0.024. An appropriate cuvette was filled with 0.9 ml of the prewarmed nitrocefin substrate and 100 ul of permeabilized bacterial suspension was added. The contents of the cuvette were immediately mixed by inversion and the cuvette was placed in a spectrophotometer. Absorbance was assayed at 5-second intervals for up to 5 minutes with the 37° C. temperature maintained by means of a circulating water bath that warmed the cuvette block. When the assay was complete, the activity was calculated according to the above formula.
For experiment [2], the system named is β-lactamases of Klebsiella isolates (AmpC). Description: Isoelectric focusing with inhibitor overlays. It counts as biochemical, Klebsiella spp. Conditions: nine of ten positive Klebsiella isolates; 1000 μM overlay. The procedure: Crude sonicates were subjected to analytical isoelectric focusing (IEF) on an ampholine polyacrylamide gel (pH range 3.5-9.5) on a flatbed apparatus (Multiphor LKB). Inhibitor overlays of the IEF gel were performed with 1000 μM clavulanic acid and cloxacillin.

The test system of a further experiment is E. coli MISC 208. In words: Spectrophotometric hydrolysis assay of β-lactamase released by permeabilizing agent, cefaclor as substrate. It counts as cell-based. The procedure: as §2
The experiment in Example 1 was repeated using E. coli MISC 208 and cefaclor as substrate in the hydrolysis assays.

Sequence of OXA-2 (P0A1V9 22-275): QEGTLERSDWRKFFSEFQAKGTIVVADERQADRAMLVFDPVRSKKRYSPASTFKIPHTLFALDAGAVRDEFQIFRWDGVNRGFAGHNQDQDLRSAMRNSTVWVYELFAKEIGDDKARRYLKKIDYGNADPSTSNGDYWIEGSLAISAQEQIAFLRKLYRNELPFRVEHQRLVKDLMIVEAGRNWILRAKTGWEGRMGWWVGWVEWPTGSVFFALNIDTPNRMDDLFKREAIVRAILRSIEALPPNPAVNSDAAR
Sequence of OXA-3 (Q51429 22-275): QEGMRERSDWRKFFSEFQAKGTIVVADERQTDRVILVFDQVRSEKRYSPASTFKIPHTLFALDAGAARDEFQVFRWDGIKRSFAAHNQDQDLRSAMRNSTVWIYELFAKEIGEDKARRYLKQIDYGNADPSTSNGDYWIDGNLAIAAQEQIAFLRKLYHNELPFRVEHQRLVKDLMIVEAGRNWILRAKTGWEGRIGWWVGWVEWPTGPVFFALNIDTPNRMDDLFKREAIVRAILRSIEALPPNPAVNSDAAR
Sequence of PSE-1 (Q03170 18-288): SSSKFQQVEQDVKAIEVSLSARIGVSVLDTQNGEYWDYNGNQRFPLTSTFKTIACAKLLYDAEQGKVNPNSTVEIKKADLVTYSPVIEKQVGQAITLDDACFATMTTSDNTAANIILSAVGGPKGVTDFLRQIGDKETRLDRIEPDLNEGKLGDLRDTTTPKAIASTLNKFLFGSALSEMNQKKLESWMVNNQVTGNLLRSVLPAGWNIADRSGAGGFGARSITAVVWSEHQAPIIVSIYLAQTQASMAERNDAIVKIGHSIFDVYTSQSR
Sequence of OXA-5 (Q00982 20-267): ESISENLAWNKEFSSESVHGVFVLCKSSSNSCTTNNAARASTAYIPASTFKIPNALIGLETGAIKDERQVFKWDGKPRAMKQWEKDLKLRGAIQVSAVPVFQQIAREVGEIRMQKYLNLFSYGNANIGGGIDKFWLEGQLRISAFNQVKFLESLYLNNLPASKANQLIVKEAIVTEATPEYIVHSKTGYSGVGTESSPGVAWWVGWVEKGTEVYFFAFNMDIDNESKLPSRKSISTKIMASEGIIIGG
Sequence of L-1 (P52700 34-290): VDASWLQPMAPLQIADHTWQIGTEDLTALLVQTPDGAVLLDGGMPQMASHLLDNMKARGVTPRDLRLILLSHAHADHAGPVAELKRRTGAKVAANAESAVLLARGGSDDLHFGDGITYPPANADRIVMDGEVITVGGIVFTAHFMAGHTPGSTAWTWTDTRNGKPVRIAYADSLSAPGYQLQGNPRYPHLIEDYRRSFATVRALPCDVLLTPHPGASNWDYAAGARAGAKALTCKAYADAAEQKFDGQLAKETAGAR
Sequence of SHV-1 (P0AD64 22-286): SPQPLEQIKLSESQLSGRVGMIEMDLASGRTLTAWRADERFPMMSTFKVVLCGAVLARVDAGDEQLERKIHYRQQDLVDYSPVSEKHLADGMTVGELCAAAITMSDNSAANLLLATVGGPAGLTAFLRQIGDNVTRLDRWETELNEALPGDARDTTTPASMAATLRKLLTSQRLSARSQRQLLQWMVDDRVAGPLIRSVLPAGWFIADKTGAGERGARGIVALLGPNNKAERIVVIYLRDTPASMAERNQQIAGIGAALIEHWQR
Sequence of SHV-4 (P37323 whole entry): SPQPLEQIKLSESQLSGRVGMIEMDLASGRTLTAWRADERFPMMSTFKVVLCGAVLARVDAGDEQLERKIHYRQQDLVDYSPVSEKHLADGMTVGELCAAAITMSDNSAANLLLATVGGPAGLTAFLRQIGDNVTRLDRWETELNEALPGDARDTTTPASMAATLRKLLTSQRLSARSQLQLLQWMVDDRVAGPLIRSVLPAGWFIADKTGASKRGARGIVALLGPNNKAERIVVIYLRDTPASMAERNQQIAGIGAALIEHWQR
Sequence of SHV-2 (P0A9Z7 22-286): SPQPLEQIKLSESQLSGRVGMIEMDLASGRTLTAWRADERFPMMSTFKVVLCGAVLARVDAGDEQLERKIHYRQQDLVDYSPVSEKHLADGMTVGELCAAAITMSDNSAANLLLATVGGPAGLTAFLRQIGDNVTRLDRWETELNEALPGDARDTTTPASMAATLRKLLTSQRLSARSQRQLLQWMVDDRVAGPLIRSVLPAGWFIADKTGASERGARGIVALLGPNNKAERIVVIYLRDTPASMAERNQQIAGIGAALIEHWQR
Text for ACT-1: (§3) A solution of equal parts of physiological saline and Tris EDTA (Sigma Chemicals) is made. • 2. A 20 microliter aliquot of the permeabilizing agent solution was placed onto a filter paper disk and allowed to dry. […] The filter paper disk impregnated with the permeabilizing agent was rehydrated with 20 microliters of sterile physiological saline. • 2. Using a cotton swab or loop, a test organism was rubbed onto the rehydrated disk. • 3. A Mueller Hinton Agar plate was inoculated with a 0.5 McFarland of E. coli ATCC 25922. • 4. A cefoxitin disk was placed onto the surface of the agar plate. The rehydrated disk inoculated with the test organism next was placed next to the cefoxitin disk, at a distance of about 0.5-1.0 mm. • 5. The agar plate was incubated at 37° C. for about 16 hours, or overnight. • 6. Distortion of the cefoxitin zone was interpreted as a positive result (i.e., the presence of an antibiotic-inactivating factor was detected), whereas lack of distortion of the cefoxitin zone was interpreted as a negative result.
An indentation of a zone of inhibition around the antibiotic dish was interpreted as positive for presence of antibiotic-inactivating factor.
Text for FOX-1: as §3
(§4) The indirect method was performed essentially as described in Example 4, except the antibiotic disks were as indicated. An indentation of a zone of inhibition around the antibiotic dish was interpreted as positive for presence of antibiotic-inactivating factor.
Protocol for OXA-2: as §4
Text for OXA-3: as §3, §4
Protocol for OXA-4: as §4
Protocol for OXA-5: as §4
Protocol for OXA-6: as §4
Text for SHV-1: as §3, §4
Text for SHV-4: as §3, §4
Protocol for TEM-46: as §4

As for `CC1(C)S[C@@H]2[C@H](NC(=O)[C@H](N)c3ccccc3)C(=O)N2[C@H]1C(=O)O` [AM, ampicillin], the “Reagent disk test result (indentation of inhibition zone = antibiotic inactivation)” value at L-1 was “N”.
In the case of `C[C@H]1[C@H](NC(=O)/C(=N\OC(C)(C)C(=O)O)c2csc(N)n2)C(=O)N1S(=O)(=O)O` [Aztreonam, aztreonam], the “Reagent disk test result (indentation of inhibition zone = antibiotic inactivation)” value at OXA-5, at OXA-3, in the experiment with OXA-4, at OXA-2, in the experiment on AmpC and with LAT-1 was “N” in each case. Moreover, the “Reagent disk test result (indentation of inhibition zone = antibiotic inactivation)” value at PSE-1, on L-1, with OXA-6, with ACT-1, in the experiment on FOX-1 and at SHV-1 was “N” each time. The “Units of β-lactamase Activity (Nitrocefin as substrate)” value (“Units … (Nitrocefin as substrate)” for short) in the experiment with E. coli V1104 was 210.
Regarding `CO[C@@]1(NC(=O)CSCC#N)C(=O)N2C(C(=O)O)=C(CSc3nnnn3C)CS[C@@H]21` [CMZ, cefmetazole], the “Reagent disk test result (indentation of inhibition zone = antibiotic inactivation)” value is “P^m” at PSE-1 and “N” in the experiment with TEM-46.
For the compound `CO/N=C(\C(=O)N[C@@H]1C(=O)N2C(C(=O)O)=C(CSc3nc(=O)c(O)nn3C)CS[C@H]12)c1csc(N)n1` [CRO, ceftriaxone], the “Reagent disk test result (indentation of inhibition zone = antibiotic inactivation)” value at OXA-5, at OXA-3, with OXA-4, on OXA-2, at PSE-1 and at L-1 was “N” each time.
As to `CO/N=C(\C(=O)N[C@@H]1C(=O)N2C(C(=O)O)=C(COC(C)=O)CS[C@H]12)c1csc(N)n1` [CTX, cefotaxime], the “Reagent disk test result (indentation of inhibition zone = antibiotic inactivation)” value at OXA-5 is recorded as “N”; at OXA-3, “N”; at OXA-2, “N”; on PSE-1, “N”; on L-1 it was “N”; in the experiment with OXA-6, “WP?”. Also, the “Reagent disk test result (indentation of inhibition zone = antibiotic inactivation)” value in the experiment on TEM-46 is “N”.
In the case of `C[C@@H](O)[C@H]1C(=O)N2C(C(=O)O)=C(S[C@@H]3CN[C@H](C(=O)Nc4cccc(C(=O)O)c4)C3)[C@H](C)[C@H]12` [ERT, ertapenem], in the experiment with Class A Carbapenemases, the “CACs detected by indirect TE disk test” value is “all” and the “False positive results in indirect TE disk test” value is “no false positive results”.
By MIC is commonly meant the lowest concentration found to suppress growth. Regarding `CO[C@@]1(NC(=O)Cc2cccs2)C(=O)N2C(C(=O)O)=C(COC(N)=O)CS[C@@H]21` [FOX, cefoxitin], the “Reagent disk test result (indentation of inhibition zone = antibiotic inactivation)” value on OXA-5 is recorded as “N”; with OXA-4 it was “N”; on PSE-1, “N^n”; at L-1, “N”; at SHV-2, “N”; with OXA-6, “N”. In addition, the “Reagent disk test result (indentation of inhibition zone = antibiotic inactivation)” value with TEM-46, on SHV-4 and at SHV-1 was “N” in each case. Besides, the MIC was no less than 16 µg/mL against Klebsiella spp. isolates (thirty Klebsiella spp. isolates) and no less than 16 µg/mL in the experiment with Klebsiella spp. isolates (thirty isolates of Klebsiella spp., read-out: MIC).
Turning to `C[C@@H](O)[C@H]1C(=O)N2C(C(=O)O)=C(SCCN=CN)C[C@H]12` [IPM, imipenem], the “Reagent disk test result (indentation of inhibition zone = antibiotic inactivation)” value in the experiment on OXA-4, in the experiment on OXA-6, with TEM-46 and in the experiment on FOX-1 was “N” throughout. Further, the MIC in the experiment on Klebsiella spp. isolates (the one positive Klebsiella isolate producing a carbapenem-hydrolyzing enzyme, read-out: MIC) was 64 µg/mL (≈ 214 µM).
On to `C[C@@H](O)[C@H]1C(=O)N2C(C(=O)O)=C(S[C@@H]3CN[C@H](C(=O)N(C)C)C3)[C@H](C)[C@H]12` [MEM, meropenem], for which the “Reagent disk test result (indentation of inhibition zone = antibiotic inactivation)” value on OXA-5 was “N”; at OXA-3, “N”; in the experiment with OXA-4 it was “N”; at OXA-2, “WP?”; in the experiment with LAT-1, “N”; on L-1, “N”. Besides, the “Reagent disk test result (indentation of inhibition zone = antibiotic inactivation)” value on SHV-2, in the experiment on OXA-6, in the experiment with TEM-46, at SHV-4, in the experiment with FOX-1 and on SHV-1 was “N” each time. In addition, the “CACs detected by indirect TE disk test” value in the experiment on Class A Carbapenemases is 19/21. Further, the “False positive results in indirect TE disk test” value in the experiment with Class A Carbapenemases was “no false positive results”.
As for `CCN1CCN(C(=O)N[C@@H](C(=O)N[C@@H]2C(=O)N3[C@@H]2SC(C)(C)[C@@H]3C(=O)O)c2ccccc2)C(=O)C1=O` [Piperacillin], the “Units … (Nitrocefin as substrate)” value in the experiment on E. coli V1104 is on record as 202.
For the compound `NC(CO)(CO)CO` [Tris], the “Units … (Nitrocefin as substrate)” value in experiment [1] was 41.
Regarding `Cc1onc(-c2ccccc2Cl)c1C(=O)N[C@@H]1C(=O)N2[C@@H]1SC(C)(C)[C@@H]2C(=O)O` [cloxacillin], the “Inhibition of β-lactamases (pIs 7.2, 7.7 or ≧9.0) in IEF inhibitor overlay” value in experiment [2] is “inhibited”.
As to Polymyxin B, the “Units of β-lactamase Activity (Cefaclor as substrate)” value in the experiment on E. coli MISC 208 (agent 10 μg/ml) is 3.8; in the experiment with E. coli MISC 208 (agent 30 μg/ml), 15.
As to benzalkonium chloride, the “Units of β-lactamase Activity (Cefaclor as substrate)” value with E. coli MISC 208 (agent 200 μg/ml) is reported as 16.
